Data published in patent US10632121B2, “Platelet-derived growth factor receptor mutations and compositions and methods relating thereto” (MEMORIAL SLOAN KETTERING CANCER CENTER, priority 2014, dated 2020).

Key:
PI3K/mTOR pathway = assay: Clinical trial: IHC of PI3K/mTOR pathway markers in GBM tumor tissue; format: in vivo, human
Experimental: To evaluate pharmacodynamic effects in tumor tissue, immuno-histochemistry (IHC) was performed with phosphorylation-site specific antibodies against four PI3K/mTOR pathway components: Proline-Rich Akt Substrate of 40-kDa (PRAS40, threonine246), ribosomal protein S6 kinase 1 (S6K1, threonine 389), eukaryotic translation initiation factor 4E-binding protein 1 (4E-BP1, threonine 37/46), and S6 Ribosomal Protein (S6RP, serine 235/236) (FIG. 1D). For each marker staining of several thousand tumor cells was quantified and the staining intensity in the “on-treatment”-biopsy (Surgery 2) was compared with the staining intensity in the tumor sample collected from the same patient at diagnosis (Surgery 1). This “matched-pair” analysis included 19/21 evaluable patients (Table 3) who received at least one dose of study drug, had detectable phospho-S6RP in the pre-treatment sample (Surgery 1), and had tissue of sufficient quality collected on treatment (Surgery 2).
The design of the trial allowed comparison of the initial glioma (Surgery 1) in these patients to the recurrent glioma which was treated with drug before surgical resection (Surgery 2). Immunohistochemical staining (IHC) was performed on the samples and pathway inhibition was measured via pS6 Ser235/6, pS6K1 Thr389, p4E-BP1 Thr37/46, and pPRAS40 Thr246 (FIG. 1E, upper panel). Cellular proliferation was measured via Ki-67 IHC. […]
Immunohistochemical (IHC) staining of patient samples was performed on formalin-fixed paraffin-embedded (FFPE) tumor tissues collected at the initial surgery and recurrent tumor surgery. […] Immunoreactivity was detected using NovaRED Peroxidase Substrate kit (Vector Labs SK-4800) and sections were counterstained with hematoxylin.
To analyze pathway inhibition, three representative tumor images from each slide stained with phospho-proteins were taken, after determining the presence of tumor cells based on hematoxylin staining evaluation. […] The tumor to normal ratio was calculated by dividing the average of the tumor images by the average of the normal tissue image. […]

[1] = system: PI3K/mTOR pathway (pAkt Ser473, pS6); assay: S5472 subcutaneous tumors, pAkt and pS6 (IHC, Meso Scale); format: in vivo, mouse
Experimental: The in vivo effects of SAR245409 treatment were examined on the S5472 PDGF-β driven line. One million S5472 cells were injected subcutaneously into SCID mice flanks. After measurable tumor formation, mice were randomized into vehicle, 60 mg/kg/day, or 120 mg/kg/every other day treatment groups, ten mice per group. […] Tumors were removed from one hour after the last dose of treatment for analysis. Sections were IHC stained for biomarkers of pathway inhibition pAkt Ser473 and pS6 Ser235/6. […] Portions of the tumor were lysed and pAkt Ser473 and pS6 Ser240/4 were measured using an electrochemiluminescent assay on the Meso Scale system (FIG. 19B).
pS6RP Ser240/4 (K150DFD-1) and pAkt Ser473/total Akt (K15100D-1) assays were purchased from MescoScale Discovery and performed as described by the kit on fresh cell lysates, or on lysed frozen tumor sections. Assays were read on the SECTOR™ SI2400 imager.

mTOR = mTOR (Homo sapiens, UniProt P42345); details: cited from earlier work

With CCn1c(=O)c(-c2cc[nH]n2)cc2c(C)nc(N)nc21 [SAR409, voxtalisib] the “tumor cell proliferation and all four PI3K/mTOR pathway markers in on-treatment biopsy” value (PI3K/mTOR pathway; patient #2021, Surgery 2) was “decrease”, the “PI3K/mTOR pathway inhibition in tumor, Surgery 2 vs Surgery 1” value (PI3K/mTOR pathway; patients treated 10-28 days before surgery) was “Inhibition of the PI3K/mTOR Pathway” and the “pAkt Ser473 and pS6 Ser240/4 in tumor lysates (electrochemiluminescent assay)” value ([1]; 60 mg/kg/day arm, p=0.0001 vs vehicle) was “significantly down”. For the same compound, the “pAkt Ser473 and pS6 Ser235/6 in tumor sections (IHC)” value ([1]; one hour after last dose, treated vs vehicle) was “Notable inhibition of both markers” and the IC50 (mTOR) was 190 nM.
